Consider 12 molecules from patent EP0199985A2, “Benzoic-acid derivatives, pharmaceutical preparations comprising them and process for preparing these compounds and pharmaceutical preparations” (Grünenthal GmbH, priority 1985, dated 1986).

What is called IC50 is the midpoint of a concentration-inhibition curve.

For this assay, the target named is T1, 5-Lipoxygenase (Rattus norvegicus, UniProt P12527).
T1 construct: basophile leukämische Leukozyten der Ratte in-vitro gezüchtet; endogenous in cells; whole cells suspended in phosphate buffer, stimulated with A 23187
T1 sequence (P12527 1-673): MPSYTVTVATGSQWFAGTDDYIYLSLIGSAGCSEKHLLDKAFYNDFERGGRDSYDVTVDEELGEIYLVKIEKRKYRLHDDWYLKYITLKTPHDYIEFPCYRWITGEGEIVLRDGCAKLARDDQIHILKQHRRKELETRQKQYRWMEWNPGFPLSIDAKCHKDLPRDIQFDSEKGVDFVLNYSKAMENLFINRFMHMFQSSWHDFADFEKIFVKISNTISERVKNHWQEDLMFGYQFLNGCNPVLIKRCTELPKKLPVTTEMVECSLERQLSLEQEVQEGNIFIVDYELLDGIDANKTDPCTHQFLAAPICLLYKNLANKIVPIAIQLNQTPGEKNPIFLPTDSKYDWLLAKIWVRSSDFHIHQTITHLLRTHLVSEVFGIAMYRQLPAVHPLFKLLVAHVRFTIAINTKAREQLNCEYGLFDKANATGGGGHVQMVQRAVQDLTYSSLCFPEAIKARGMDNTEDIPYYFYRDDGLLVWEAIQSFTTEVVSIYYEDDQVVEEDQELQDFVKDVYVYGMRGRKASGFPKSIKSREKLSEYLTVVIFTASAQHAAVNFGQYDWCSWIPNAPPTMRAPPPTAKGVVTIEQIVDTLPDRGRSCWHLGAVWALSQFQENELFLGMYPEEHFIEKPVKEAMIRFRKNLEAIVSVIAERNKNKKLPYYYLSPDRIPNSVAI
Briefly: 5-lipoxygenase inhibition in cultured rat basophilic leukemic leukocytes (radiolabelled arachidonic acid, TLC of 5-HETE and LTB4). In kind it is cell-based, Ratte. The note with it: rat basophilic leukemic leukocytes in 50 mM potassium phosphate buffer pH 7.4; indomethacin 10 µM, CaCl2 2 mM, labelled arachidonic acid + ionophore A 23 187, 5 min, room temperature; formation of 5-HETE and LTB4. The method, then:
Zur Ermittlung der 5-Lipoxygenasehemmung wurden basophile leukämische Leukozyten der Ratte in-vitro gezüchtet und nach Erreichen einer Zelldichte von ca. 10^6 Zellen pro ml bei 400 g vom Nährmedium abzentrifugiert. Der Rückstand wurde in 50 mM Kaliumphosphatpuffer vom pH 7,4 so suspendiert, daß die Zellzahl […] Zellen pro ml betrug.
Jeweils 1 ml dieser Suspension wurde mit Indomethacin (10 uM) und Calciumchlorid (2 mM) versetzt und in An-oder Abwesenheit einer der Testsubstanzen mit radioaktiv markierter Arachi- 5 donsäure und dem Calcium-lonophor A 23 187 bei Raumtemperatur für 5 Minuten inkubiert. Nach Ansäuern auf pH 5 wurden die unter dem Einfluß der 5-Lipoxygenase gebildeten Arachidonsäuremetaboliten mit Ethylacetat extrahiert und 10 mit einem für die Leukotriene geeigneten Fließmittelgemisch dünnschichtchromatographisch getrennt [vgl. Jakschik et al. Biochem. Biophys. Res. Commun. 102, 624 (1981)]. Die Radioaktivitätsverteilung auf die verschiedenen Metaboliten 15 wurde mit Hilfe eines Dünnschichtscanners gemessen. Setzt man die prozentualen Bildungsanteile der 5-Lipoxygenaseprodukte (5-HETE und LTB4) zu der Menge bzw. Konzentration der eingesetzten Gesamtradioaktivität bzw. der Testsubstanz 20 der Formel I in Relation, so läßt sich der IC50-Wert-(d. h. die Konzentration, die eine 50 %-ige Hemmung der 5-Lipoxygenase bewirkt) ermitteln.
In the case of `CCCN(CCC)C(=O)c1cccc(C#CCCCCCCC#CCO)c1` [Beispiel 24g, 3-(11'-Hydroxy-undeca-1',9'-diin-1'-yl)-benzoesäure-[N,N-di-(n-propyl)]-amid], the 50% inhibitory concentration (IC50) was found to be 2400 nM.
Then `CCCCCC(O)/C=C/C=C\C/C=C\C/C=C\c1ccc(C(=O)OC)cc1` (stereo not drawn) [Beispiel 7, 4-(11'-Hydroxy-hexadeca-1'Z,4'Z,7'Z,9'E-tetraen-1'-yl)-benzoesäuremethylester], with 1000 nM.
In the case of `COC(=O)c1cccc(C#CCC#CCC#C/C=C/C(O)C2CCCCC2)c1` (stereo not drawn) [Beispiel 4, 3-(11'-Cyclohexyl-11'-hydroxy-undec-9'E-en-1',4',7-triin-1'-yl)-benzoesäuremethylester], the IC50 was determined as 1400 nM.
Then `CC(C)N(C(=O)c1cccc(C#CCCCCCCC#CCO)c1)C(C)C` [Beispiel 24n, 3-(11'-Hydroxy-undeca-1',9'-diin-1'-yl)-benzoesäure-[N,N-di-(isopropyl)]-amid], with 1600 nM; and `CN(O)C(=O)c1cccc(C#CCCCCCCC#CCO)c1` [Beispiel 16], with 1000 nM; and `CCCCCC(O)/C=C/C#CCC#CCC#Cc1cccc(C(=O)OC)c1` (stereo not drawn) [Beispiel 1, 3-(11'-Hydroxy-hexadec-9'E-en-1',4',7'-triin-1'-yl)-benzoesäuremethylester], with 1700 nM.
On to `CN(O)C(=O)c1ccc(C#CCCCCCCC#CCO)cc1` [Beispiel 11, 4-(11'-Hydroxy-undeca-1',9'-diin-1'-yl)-N-methylbenzhydroxamsäure], for which the IC50 amounted to 200 nM.
On to `CCCCCNC(=O)c1cccc(C#CCCCCCCC#CCOC(C)=O)c1` [Beispiel 27a, 3-(11 '-Acetoxy-undeca-1',9'-diin-1'-yl)-benzoesäure-n-pentylamid], for which the concentration for half-maximal inhibition (IC50) was 7000 nM.
On to `CC(=O)ON(C)C(=O)c1cccc(C#CCCCCCCC#CCO)c1` [Beispiel 24l, 3-(11'-Hydroxy-undeca-1',9'-diin-1'-yl)-benzoesäure-(N-methyl-N-acetoxy)-amid], for which the IC50 turned out to be 500 nM.
Consider `O=C(c1cccc(C#CCCCCCCC#CCO)c1)N1CCCCC1` [Beispiel 17, 3-(11 '-Hydroxy-undeca-1',9'-diin-1'-yl)-benzoesäurepiperidid], for which the half-maximal inhibitory concentration (IC50) worked out at 2300 nM.
`CN(O)C(=O)c1cccc(C#CCCCCCCC#CC(O)C2CCCCC2)c1` (stereo not drawn) [Beispiel 23biii, 3-(11'-Cyclohexyl-11'-hydroxy-undeca-1',9'-diin-1'-yl)-N-methylbenzhydroxamsäure]: the IC50 is 500 nM.
Then `CCOC(=O)c1cccc(C#CCCCCCCC#CCO)c1` [Beispiel 18, 3-(11 '-Hydroxy-undeca-1',9'-diin-1-yl)-benzoesäureethylester], with 7500 nM.
